We go through 21 molecules from patent US20220235065A1 (Epizyme, Inc., priority 2016, published 2022).

For experiment [1], the target named is T1, recombinant purified human EHMT2 913-1193 (Homo sapiens, UniProt Q96KQ7).
T1 construct: Recombinant purified human EHMT2 913-1193 (55 μM) synthesized by Viva was used for all experiments; purchased Viva
T1 sequence (Q96KQ7 913-1193): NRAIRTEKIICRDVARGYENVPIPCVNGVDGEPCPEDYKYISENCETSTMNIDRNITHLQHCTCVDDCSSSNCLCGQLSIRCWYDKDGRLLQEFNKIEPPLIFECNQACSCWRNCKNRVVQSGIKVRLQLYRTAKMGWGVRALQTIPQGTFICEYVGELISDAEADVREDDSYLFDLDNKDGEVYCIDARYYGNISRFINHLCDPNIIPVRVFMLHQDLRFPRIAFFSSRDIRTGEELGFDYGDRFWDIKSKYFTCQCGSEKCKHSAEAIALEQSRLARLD
Put plainly: EHMT2 enzyme assay on histone peptide substrate (3H-SAM Flashplate). In kind it is biochemical. The note with it: read-out: EHMT2 PEP (IC50 μM). A digest of the protocol:
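Compounds (10-point 3-fold series, top 50 μM final, 2% DMSO) preincubated 30 min with 0.031 nM EHMT2 in 20 mM Bicine pH 7.5, 1 mM TCEP; reaction started with 3H-SAM and biotinylated H3 1-15 peptide, both at Km, run 60 min at room temperature. Flashplate capture; IC50 from four-parameter fit, triplicates.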

In a further experiment the target is T2, EHMT1 (Homo sapiens, UniProt Q9H9B1).
T2 sequence (Q9H9B1 1-1298): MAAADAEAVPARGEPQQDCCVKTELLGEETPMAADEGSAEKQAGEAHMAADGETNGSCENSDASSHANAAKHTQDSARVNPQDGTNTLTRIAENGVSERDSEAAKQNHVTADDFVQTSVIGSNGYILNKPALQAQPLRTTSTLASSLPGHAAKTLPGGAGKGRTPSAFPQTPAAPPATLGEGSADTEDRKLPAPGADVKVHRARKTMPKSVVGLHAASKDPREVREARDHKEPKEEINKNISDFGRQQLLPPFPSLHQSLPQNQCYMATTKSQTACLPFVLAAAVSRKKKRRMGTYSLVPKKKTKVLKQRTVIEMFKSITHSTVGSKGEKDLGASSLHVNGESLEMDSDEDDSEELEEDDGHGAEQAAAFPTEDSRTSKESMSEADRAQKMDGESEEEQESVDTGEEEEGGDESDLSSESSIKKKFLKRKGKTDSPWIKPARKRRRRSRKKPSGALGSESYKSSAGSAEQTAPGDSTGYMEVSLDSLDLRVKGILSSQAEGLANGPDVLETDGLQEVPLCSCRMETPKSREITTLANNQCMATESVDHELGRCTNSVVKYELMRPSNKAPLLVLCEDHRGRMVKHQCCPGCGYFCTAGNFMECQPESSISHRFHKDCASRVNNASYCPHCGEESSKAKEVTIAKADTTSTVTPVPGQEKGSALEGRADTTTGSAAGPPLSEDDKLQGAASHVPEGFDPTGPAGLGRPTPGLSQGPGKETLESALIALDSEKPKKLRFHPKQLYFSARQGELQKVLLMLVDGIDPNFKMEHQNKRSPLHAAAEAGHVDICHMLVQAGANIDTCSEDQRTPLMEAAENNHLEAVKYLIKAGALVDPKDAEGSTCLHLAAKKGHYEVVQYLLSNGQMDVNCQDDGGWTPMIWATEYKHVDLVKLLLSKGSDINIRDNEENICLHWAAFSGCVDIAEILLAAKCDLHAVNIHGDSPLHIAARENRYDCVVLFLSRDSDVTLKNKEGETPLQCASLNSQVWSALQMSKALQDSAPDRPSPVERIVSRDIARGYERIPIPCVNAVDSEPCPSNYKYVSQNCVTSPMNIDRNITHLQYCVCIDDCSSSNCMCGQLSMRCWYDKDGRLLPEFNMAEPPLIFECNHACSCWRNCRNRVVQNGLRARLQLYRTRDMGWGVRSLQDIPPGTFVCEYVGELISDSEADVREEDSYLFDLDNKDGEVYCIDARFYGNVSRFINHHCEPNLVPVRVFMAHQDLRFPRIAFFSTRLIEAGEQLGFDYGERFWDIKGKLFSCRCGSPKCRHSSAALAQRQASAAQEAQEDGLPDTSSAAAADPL
Put plainly: EHMT1 PEP (EHMT1 peptide enzyme assay). In kind it is biochemical. The note with it: peptide substrate enzyme assay.

For orientation: IC50 means the concentration that inhibits the measured activity by half. `CNc1cc(C)nc(Nc2ccc(OC)c(-c3cc4c(cn3)CC(=O)N4)c2)n1` [Compound 219]: the IC50 in experiment [1] was in the range of 1 to 10 µM; at EHMT1, 0.1 to 1 µM.
Take `CNc1cc(C)nc(Nc2ccc(OC)c(-c3cc4[nH]ccc4cn3)c2OC)n1` [Compound 220]: the IC50 in experiment [1] was over 10 µM; against EHMT1 it was 1 to 10 µM.
For `CNc1cc(C)nc(Nc2ccc(OC)c(-c3cc4[nH]ccc4cn3)c2F)n1` [Compound 221], the concentration for half-maximal inhibition (IC50) in experiment [1] is 0.1 to 1 µM; against EHMT1, under 0.1 µM.
Consider `CNCc1cnn(-c2c(OC)ccc(Nc3nc(C)cc(NC)n3)c2OC)c1` [Compound 222], for which the IC50 is 0.1 to 1 µM in experiment [1] and under 0.1 µM against EHMT1.
As for `CNc1cc(C)nc(Nc2ccc(OC)c(-c3cnc4cc[nH]c4c3)c2)n1` [Compound 223], the concentration for half-maximal inhibition (IC50) (in experiment [1]; on EHMT1) was under 0.1 µM throughout.
For `CNc1cc(-c2cc(Nc3nc(C)cc(NC)n3)ccc2OC)ncn1` [Compound 225], the IC50 in experiment [1] is 1 to 10 µM; on EHMT1, under 0.1 µM.
`CNc1cc(C)nc(Nc2ccc(OC)c(-c3cc4[nH]ccc4nc3C)c2)n1` [Compound 228]: the IC50 (in experiment [1]; against EHMT1) was under 0.1 µM throughout.
In the case of `CNc1cc(C)nc(Nc2ccc(OC)c(-c3cc4[nH]cc(F)c4cn3)c2)n1` [Compound 229], the IC50 in experiment [1] is 0.1 to 1 µM; on EHMT1, under 0.1 µM.
`CNc1cc(-c2cc(Nc3nc(C)cc(NC)n3)ccc2OC)nc(C)n1` [Compound 230]: the 50% inhibitory concentration (IC50) in experiment [1] was 0.1 to 1 µM; on EHMT1, under 0.1 µM.
For `COc1cc(NC2CCNCC2)ccc1-c1cc2[nH]ccc2cn1` [Compound 231] the same measures were 1 to 10 µM and 1 to 10 µM.
For `CNc1cc(C)nc(Nc2ccc(OC)c(-c3cc(C4CC4)ncn3)c2)n1` [Compound 232], the figures for the 50% inhibitory concentration (IC50) (in experiment [1]; at EHMT1) were over 10 µM and 1 to 10 µM, respectively.
As to `CNc1cc(C)nc(Nc2ccc(OC)c(-c3cc(C4CC4)cnn3)c2)n1` [Compound 233], the figures for the IC50 (in experiment [1]; on EHMT1) were 1 to 10 µM and 0.1 to 1 µM, respectively.
As for `CNc1cc(C)nc(Nc2ccc(OC)c(-c3cn4ccnc4cn3)c2)n1` [Compound 234], the 50% inhibitory concentration (IC50) in experiment [1] was over 10 µM; against EHMT1 it was 0.1 to 1 µM.
With `CNc1cc(C)nc(Nc2ccc(OC)c(-c3cc4cnoc4cn3)c2)n1` [Compound 235], the IC50 (in experiment [1]; against EHMT1) was over 10 µM each time.
As for `COc1cc(NC2CCNCC2)ccc1-c1cc(C2CC2)cnn1` [Compound 236], the half-maximal inhibitory concentration (IC50) (in experiment [1]; against EHMT1) was over 10 µM each time.
Turning to `CNc1cc(C)nc(Nc2ccc(OC)c(-c3cc4[nH]ccc4c(C)n3)c2)n1` [Compound 237], the IC50 (in experiment [1]; at EHMT1) was under 0.1 µM each time.
As to `CNC1=Nc2cc(-c3[nH]c4cnccc4c3C)c(OC)cc2C12CCC2` [Compound 238, 5′-methoxy-N-methyl-6′-(3-methyl-1H-pyrrolo[2,3-c]pyridin-2-yl)spiro[cyclobutane-1,3′-indol]-2′-amine], the IC50 (in experiment [1]; on EHMT1) was under 0.1 µM throughout.
Turning to `CNc1cc(C)nc(Nc2ccc(C)c(C(=O)Nc3cccnc3)c2)n1` [Compound 239], the IC50 (in experiment [1]; on EHMT1) was over 10 µM each time.
Take `CNc1cc(C)nc(Nc2ccc(Cl)c(C(=O)Nc3cccnc3)c2)n1` [Compound 240]: the IC50 was over 10 µM in experiment [1] and 1 to 10 µM on EHMT1.
For `CNc1cc(C)nc(Nc2ccc(C)c(-c3cc4ccncc4[nH]3)c2)n1` [Compound 241], the IC50 (in experiment [1]; at EHMT1) was under 0.1 µM in each case.
With `CNc1cc(C)nc(Nc2cccc(C(=O)Nc3cccnc3)c2)n1` [Compound 242], the 50% inhibitory concentration (IC50) (in experiment [1]; against EHMT1) was over 10 µM in each case.
